Drawing on PubChem BioAssay (NCI), this text covers TGI for 15 compounds.

Structures are written as SMILES.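 Each compound was tested at five concentrations against cells in 96-well plates for 48 hours. Definition used: TGI = concentration required for complete inhibition of growth.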

The first assay has as its system UACC-257 melanoma. Put plainly: NCI tumour cell line growth inhibition, 48 h.
The compound `O=c1[nH]c2cc([N+](=O)[O-])ccc2nc1/C(=N/Nc1ccccc1)C(O)c1ccccc1Cl` (stereo not drawn) registered a TGI above 100 µM.

Turning to `C=Cc1ccc(C)[n+](C[Si](C)(C)O[Si](C)(C)C)c1`, the TGI is above 100 µM.

In turn, `C[C@]12CCC(=O)C=C1CC[C@@H]1[C@@H]2CC[C@]2(C)C(=O)NC(=O)C[C@@H]12` came in with a TGI above 100 µM.

For `COc1cc2c(oc(=O)c3c4oc([Si](C)(C)C)cc4cc(OC)c23)c2cccc(OCc3ccccc3)c12`, the TGI was above 100 µM.

`O=C(c1cccs1)N(C(=S)N1CCN(c2ccccn2)CC1)c1ccccc1` displayed a TGI above 100 µM.

On to `CNS(=O)(=O)NN(C)S(=O)(=O)c1ccccc1`, for which the TGI is above 100 µM.

Compound `CC(=O)OCC1=C(CCC#N)N2C(=O)C(NC(=O)Cc3cccs3)C2S(=O)C1` (stereo not drawn) registered a TGI above 100 µM.

In turn, `CCCCNc1nc(C#N)c(N)s1` returned a TGI above 100 µM.

`COC(=O)N/N=C(\Cc1ccccc1)CN(C)C` registered a TGI above 100 µM.

As to `COc1ccc2c3c1O[C@]1(C)C34CCN(C)C(C2)C42C=C[C@@]1(OC)c1c(O)ccc(O)c12`, the TGI is above 100 µM.

Consider `C[N+](C)(C)CC(=O)N/N=C/c1oc(-c2c(O)ccc3ccccc23)c(-c2c(O)ccc3ccccc23)c1[N+](=O)[O-]`, for which the TGI came to 51.9 µM.

The compound `C/C(CC(=O)Nc1ccc([N+](=O)[O-])cc1)=N\NC(N)=O` came in with a TGI above 100 µM.

Regarding `CCCCOC(=O)C1C2CCC(O2)C1C(=O)OCCCC` (stereo not drawn), the TGI is above 92.2 µM.

Turning to `O=C(CSc1nnc(-c2ccc(N=Cc3ccc(Cl)cc3)cc2)o1)Nc1ccccc1[N+](=O)[O-]`, the TGI is above 100 µM.

The test system of another assay is SW-620 colon. The assay can be described thus: NCI tumour cell line growth inhibition, 48 h.
Take `O=c1[nH]c2cc([N+](=O)[O-])ccc2nc1/C(=N/Nc1ccccc1)C(O)c1ccccc1Cl` (stereo not drawn): the TGI is above 100 µM.

`C=Cc1ccc(C)[n+](C[Si](C)(C)O[Si](C)(C)C)c1`: the TGI is above 100 µM.

`C[C@]12CCC(=O)C=C1CC[C@@H]1[C@@H]2CC[C@]2(C)C(=O)NC(=O)C[C@@H]12` had a TGI above 100 µM.

The compound `COc1cc2c(oc(=O)c3c4oc([Si](C)(C)C)cc4cc(OC)c23)c2cccc(OCc3ccccc3)c12` had a TGI above 100 µM.

The compound `O=C(c1cccs1)N(C(=S)N1CCN(c2ccccn2)CC1)c1ccccc1` registered a TGI above 100 µM.

Compound `CNS(=O)(=O)NN(C)S(=O)(=O)c1ccccc1` came in with a TGI above 100 µM.

Turning to `CC(=O)OCC1=C(CCC#N)N2C(=O)C(NC(=O)Cc3cccs3)C2S(=O)C1` (stereo not drawn), the TGI was above 100 µM.

As to `CCCCNc1nc(C#N)c(N)s1`, the TGI was above 100 µM.

Compound `Cn1cc2ccccc2c1-c1nc(F)nc(F)n1` registered a TGI above 100 µM.

On to `COC(=O)N/N=C(\Cc1ccccc1)CN(C)C`, for which the TGI was above 100 µM.

Consider `COc1ccc2c3c1O[C@]1(C)C34CCN(C)C(C2)C42C=C[C@@]1(OC)c1c(O)ccc(O)c12`, for which the TGI is above 100 µM.

`C[N+](C)(C)CC(=O)N/N=C/c1oc(-c2c(O)ccc3ccccc23)c(-c2c(O)ccc3ccccc23)c1[N+](=O)[O-]`: the TGI is above 100 µM.

In turn, `C/C(CC(=O)Nc1ccc([N+](=O)[O-])cc1)=N\NC(N)=O` yielded a TGI above 100 µM.

`CCCCOC(=O)C1C2CCC(O2)C1C(=O)OCCCC` (stereo not drawn) registered a TGI above 22.9 µM.

`O=C(CSc1nnc(-c2ccc(N=Cc3ccc(Cl)cc3)cc2)o1)Nc1ccccc1[N+](=O)[O-]`: the TGI is above 100 µM.

A further assay deals with SF-539 CNS. The assay can be described thus: NCI tumour cell line growth inhibition, 48 h.
Regarding `O=c1[nH]c2cc([N+](=O)[O-])ccc2nc1/C(=N/Nc1ccccc1)C(O)c1ccccc1Cl` (stereo not drawn), the TGI is above 100 µM.

As to `C=Cc1ccc(C)[n+](C[Si](C)(C)O[Si](C)(C)C)c1`, the TGI was above 100 µM.

Consider `C[C@]12CCC(=O)C=C1CC[C@@H]1[C@@H]2CC[C@]2(C)C(=O)NC(=O)C[C@@H]12`, for which the TGI was above 100 µM.

Compound `COc1cc2c(oc(=O)c3c4oc([Si](C)(C)C)cc4cc(OC)c23)c2cccc(OCc3ccccc3)c12` came in with a TGI of 56.5 µM.

`O=C(c1cccs1)N(C(=S)N1CCN(c2ccccn2)CC1)c1ccccc1`: the TGI is above 100 µM.

In turn, `CNS(=O)(=O)NN(C)S(=O)(=O)c1ccccc1` came in with a TGI above 100 µM.

`CC(=O)OCC1=C(CCC#N)N2C(=O)C(NC(=O)Cc3cccs3)C2S(=O)C1` (stereo not drawn): the TGI was above 100 µM.

In turn, `CCCCNc1nc(C#N)c(N)s1` gave a TGI above 100 µM.

In turn, `Cn1cc2ccccc2c1-c1nc(F)nc(F)n1` showed a TGI above 100 µM.

Take `COC(=O)N/N=C(\Cc1ccccc1)CN(C)C`: the TGI was above 100 µM.

`COc1ccc2c3c1O[C@]1(C)C34CCN(C)C(C2)C42C=C[C@@]1(OC)c1c(O)ccc(O)c12` yielded a TGI above 100 µM.

The compound `C[N+](C)(C)CC(=O)N/N=C/c1oc(-c2c(O)ccc3ccccc23)c(-c2c(O)ccc3ccccc23)c1[N+](=O)[O-]` returned a TGI of 29.4 µM.

For `C/C(CC(=O)Nc1ccc([N+](=O)[O-])cc1)=N\NC(N)=O`, the TGI was above 100 µM.

`CCCCOC(=O)C1C2CCC(O2)C1C(=O)OCCCC` (stereo not drawn) yielded a TGI above 100 µM.

The next assay has as its system NCI-H23 lung. Put plainly: NCI tumour cell line growth inhibition, 48 h.
For the compound `O=c1[nH]c2cc([N+](=O)[O-])ccc2nc1/C(=N/Nc1ccccc1)C(O)c1ccccc1Cl` (stereo not drawn), the TGI was above 100 µM.

Turning to `C=Cc1ccc(C)[n+](C[Si](C)(C)O[Si](C)(C)C)c1`, the TGI was above 100 µM.

`C[C@]12CCC(=O)C=C1CC[C@@H]1[C@@H]2CC[C@]2(C)C(=O)NC(=O)C[C@@H]12` came in with a TGI above 100 µM.

Compound `COc1cc2c(oc(=O)c3c4oc([Si](C)(C)C)cc4cc(OC)c23)c2cccc(OCc3ccccc3)c12` yielded a TGI of 35.6 µM.

`O=C(c1cccs1)N(C(=S)N1CCN(c2ccccn2)CC1)c1ccccc1` gave a TGI above 100 µM.

Turning to `CNS(=O)(=O)NN(C)S(=O)(=O)c1ccccc1`, the TGI is above 100 µM.

Consider `CC(=O)OCC1=C(CCC#N)N2C(=O)C(NC(=O)Cc3cccs3)C2S(=O)C1` (stereo not drawn), for which the TGI was above 100 µM.

Compound `CCCCNc1nc(C#N)c(N)s1` yielded a TGI above 100 µM.

As for `Cn1cc2ccccc2c1-c1nc(F)nc(F)n1`, the TGI is above 100 µM.

In turn, `COC(=O)N/N=C(\Cc1ccccc1)CN(C)C` came in with a TGI above 100 µM.
